# Measured values: paper PMC7766697, “Toxicological Screening of Four Bioactive Citroflavonoids: In Vitro, In Vivo, and In Silico Approaches” (Molecules, 2020)
# Several values for one entry are separate records, joined by “and”; a condition that tells them apart may be missing. Equal entries are not always repeated. Where two headings read alike, the source gives them in different places.
# Key:
# Wistar rats [1] = system: Wistar rats
# MDCK cells = assay: MTT-based cytotoxicity assay in MDCK cells; assay type: cell-based, Canine; details: 48 h, 125 to 750 µg/mL (QRT effect at 250 and 500 µg/mL)
# Method: (§1) VERO and MDCK cell lines were acquired from American Type Culture Collection (ATCC, Manassas, VA, USA). […] In vitro cytotoxicity assay was performed on Madin-Darby Canine Kidney Epithelial Cells (MDCK) and green Monkey Kidney Cells (VERO) by MTT-based assay. Briefly, cells were seeded in 96-well plates at a density of 2.5 × 10^3 cells/well. […] The absorbance was measured after 45 min using a microplate reader (Multiskan Asent®) at a wavelength of 550 nm. The criteria for categorizing cytotoxicity against MDCK and VERO cells are based on the U.S. National Cancer Institute (NCI). The criteria comprise as follow: […] All results were expressed as mean ± standard error. The results from the in vivo and in vitro experiments were analyzed using software Origin® 8.0. […] The IC50 (half inhibitory concentration) values were calculated in Origin software®, (Northampton, MA, USA) and one-way ANOVA analysis was compared with cisplatin as the control.
# Wistar rats [2] = assay: Acute oral toxicity, OECD Test No. 423 (mortality, signs, LD50, body weight); assay type: in vivo; details: oral, 14 days
# Method: Female Wistar rats (250 g b.w.) were used. These animals were obtained from Bioterium from División de Ciencias de la Salud at the Universidad de Quintana Roo. They were maintained under standard environmental conditions (22 ± 3 °C, 12 h/12 h light/dark cycle), and free access to standard rodent diet and water ad libitum. All animal procedures were conducted under our Federal Regulations for Animal Experimentation and Care and were approved by the Institutional Animal Care and Use Committee of the “Universidad Juárez Autónoma de Tabasco” university (Code:2017-001, Approved: October 2017). Rats were acclimatized for 1 week before the start of experimental procedures.
# The half lethal dose (LD50) was estimated using the fixed-dose method described in OECD Guidelines for the Testing of Chemicals (Test No. 423: Acute Oral Toxicity-Class Method; OECD, 2001). […] This method allowed a step-by-step assay according to the chosen dose to begin the experiment. Subsequently, depending on the presence or absence of mortality, the decision to continue within the next step is taken, so fewer experimental animals should be used.
# (§2) Rats used for this experiment were fasted for 8 h and were organized into two groups of three rats for each dose and each flavonoid. Likewise, the control group received isotonic 0.9% sodium chloride solution (dose: 5 mL/kg). All rats were closely observed for toxic symptoms and behavioral changes (sedation, hyperactivity, writhing, pruritus, feeding and drinking habits, general morphological changes, and bite legs) for 30 min and periodically 24 h post-administration. Animals were observed daily (14 days) and mortality rate recorded. A LD50 was estimated according to criteria of OECD guide 423.
# The rats’ body weight in each group was determined and recorded before the treatment initiation and after 14 days. Changes in the body weight at the end of the 14 days were calculated. Once observation time was completed and to detect any adverse effect, blood samples were collected by cardiac puncture after the previous fasting of 8 h. […] In addition, organ weight was determined.
# panel of five cell lines = system: panel of five cell lines; set-up: method as in PMID 28662177; details: 5–50 µg/mL; cited from earlier work
# Wistar rats [3] = assay type: in vivo
# Method: as §2
# The rats’ body weight in each group was determined and recorded before the treatment initiation and after 14 days. Changes in the body weight at the end of the 14 days were calculated. Once observation time was completed and to detect any adverse effect, blood samples were collected by cardiac puncture after the previous fasting of 8 h. For this purpose, rats were anesthetized by intraperitoneally 50 mg/kg sodium pentobarbital. The liver was carefully extracted, rinsed in normal saline, drained on blotting paper, and carefully examined for tissue lesions. In addition, organ weight was determined.
# Rat blood samples were analyzed by a hematology auto-analyzer system (Sysmex XS-1000i®, SYSMEX®, Oak Ridge, TN, USA). The parameters quantified on this stage were: blood count-packed cell volume (PCV), red blood cell (RBC) count, hemoglobin (Hb), platelet count, white blood cell (WBC) count, mean cell hemoglobin concentration (MCHC), mean red cell volume (MCV), mean cell hemoglobin (MCH), prothrombin time (PT), and activated partial thromboplastin time (aPTT).
# VERO cells = assay: MTT-based cytotoxicity assay in VERO cells; assay type: cell-based, green Monkey; details: 48 h, 125 to 750 µg/mL (QRT effect at 250–750 µg/mL)
# Method: as §1
# Swiss-albino mice = details: cited from earlier work
# [4] = MTT-based cytotoxicity assay in VERO cells; assay type: cell-based, green Monkey; details: green monkey, MTT
# Method: as §1
structure (smiles),measurement,setting,value
"C[C@@H]1O[C@@H](O[C@H]2[C@H](Oc3cc(O)c4c(c3)O[C@H](c3ccc(O)cc3)CC4=O)O[C@H](CO)[C@@H](O)[C@@H]2O)[C@H](O)[C@H](O)[C@H]1O [NAR, naringin]",ALB (albumin),"Wistar rats [1]; rat, in vivo, po, 300 mg/kg",4.50 ± 0.02 g/dL
same,ALT,"Wistar rats [1]; rat, in vivo, po, 300 mg/kg",27.57 ± 0.62 IU/L
same,AST,"Wistar rats [1]; rat, in vivo, po, 300 mg/kg",144.58 ± 17.05 IU/L
same,DB (direct bilirubin),"Wistar rats [1]; rat, in vivo, po, 300 mg/kg",0.012 ± 0.0009 mg/dL
same,GL (globulin),"Wistar rats [1]; rat, in vivo, po, 300 mg/kg",1.97 ± 0.04 g/dL
same,GLU (glucose),"Wistar rats [1]; rat, in vivo, po, 300 mg/kg",125.54 ± 14.59 mg/dL
same,IB (indirect bilirubin),"Wistar rats [1]; rat, in vivo, po, 300 mg/kg",0.024 ± 0.0007 mg/dL
same,TB (total bilirubin),"Wistar rats [1]; rat, in vivo, po, 300 mg/kg",0.037 ± 0.001 mg/dL
same,TP (total protein),"Wistar rats [1]; rat, in vivo, po, 300 mg/kg",6.48 ± 0.04 g/dL
same,ALB (albumin),"Wistar rats [1]; rat, in vivo, po, 2000 mg/kg",4.66 ± 0.16 g/dL
same,ALT,"Wistar rats [1]; rat, in vivo, po, 2000 mg/kg",38.59 ± 1.08 IU/L
same,AST,"Wistar rats [1]; rat, in vivo, po, 2000 mg/kg",128.26 ± 5.33 IU/L
same,DB (direct bilirubin),"Wistar rats [1]; rat, in vivo, po, 2000 mg/kg",0.015 ± 0.001 mg/dL
same,GL (globulin),"Wistar rats [1]; rat, in vivo, po, 2000 mg/kg",2.03 ± 0.05 g/dL
same,GLU (glucose),"Wistar rats [1]; rat, in vivo, po, 2000 mg/kg",138.55 ± 10.48 mg/dL
same,IB (indirect bilirubin),"Wistar rats [1]; rat, in vivo, po, 2000 mg/kg",0.025 ± 0.003 mg/dL
same,TB (total bilirubin),"Wistar rats [1]; rat, in vivo, po, 2000 mg/kg",0.039 ± 0.004 mg/dL
same,TP (total protein),"Wistar rats [1]; rat, in vivo, po, 2000 mg/kg",6.71 ± 0.14 g/dL
same,ALB/GL Ratio,"Wistar rats [1]; rats, oral 300 mg/kg, after 14 days, plasma",2.30 ± 0.05
same,ALB/GL Ratio,"Wistar rats [1]; rats, oral 2000 mg/kg, after 14 days, plasma",2.32 ± 0.12
same,percentage viability / growth of cells,MDCK cells,did not change the percentage of growth
same,weight gain / body weight vs control,Wistar rats [2],changed the body weight
same,"cytotoxicity (mitochondrial membrane potential, cell membrane integrity, nuclear morphology)",panel of five cell lines,not cytotoxic
same,Erythrocytes,"Wistar rats [3]; rat, in vivo, po, 300 mg/kg",7.79±0.27 106/µL
same,Hb,"Wistar rats [3]; rat, in vivo, po, 300 mg/kg",14.03 ± 0.38 g/dL
same,Hto,"Wistar rats [3]; rat, in vivo, po, 300 mg/kg",40.63±1.03%
same,Leukocytes,"Wistar rats [3]; rat, in vivo, po, 300 mg/kg",2.65±0.30 103/µL
same,MCH,"Wistar rats [3]; rat, in vivo, po, 300 mg/kg",18.03 ± 0.16 pg
same,MCV,"Wistar rats [3]; rat, in vivo, po, 300 mg/kg",54.40 ± 1.92 fL
same,Platelets,"Wistar rats [3]; rat, in vivo, po, 300 mg/kg",726.00±12.26 105/µL
same,RBCDW,"Wistar rats [3]; rat, in vivo, po, 300 mg/kg",16.16±0.58%
same,Erythrocytes,"Wistar rats [3]; rat, in vivo, po, 2000 mg/kg",7.41±0.11 106/µL
same,Hb,"Wistar rats [3]; rat, in vivo, po, 2000 mg/kg",13.67 ± 0.16 g/dL
same,Hto,"Wistar rats [3]; rat, in vivo, po, 2000 mg/kg",40.66±0.39%
same,Leukocytes,"Wistar rats [3]; rat, in vivo, po, 2000 mg/kg",4.45±0.98 103/µL
same,MCH,"Wistar rats [3]; rat, in vivo, po, 2000 mg/kg",18.43 ± 0.05 pg
same,MCHC,"Wistar rats [3]; rat, in vivo, po, 2000 mg/kg",33.50 ± 0.14 g/dL
same,MCV,"Wistar rats [3]; rat, in vivo, po, 2000 mg/kg",54.86 ± 0.38 fL
same,Platelets,"Wistar rats [3]; rat, in vivo, po, 2000 mg/kg",553.00±239.61 105/µL
same,RBCDW,"Wistar rats [3]; rat, in vivo, po, 2000 mg/kg",15.80±0.12%
same,percentage viability / growth of cells,VERO cells,did not change the percentage of growth
"O=c1c(O)c(-c2ccc(O)c(O)c2)oc2cc(O)cc(O)c12 [QRT, Quercetin]",ALB (albumin),"Wistar rats [1]; rat, in vivo, po, 50 mg/kg",3.88 ± 0.04 g/dL
same,ALB/GL Ratio,"Wistar rats [1]; rat, in vivo, po, 50 mg/kg",1.56 ± 0.087
same,GL (globulin),"Wistar rats [1]; rat, in vivo, po, 50 mg/kg",2.50 ± 0.14 g/dL
same,GLU (glucose),"Wistar rats [1]; rat, in vivo, po, 50 mg/kg",119.67 ± 8.74 mg/dL
same,IB (indirect bilirubin),"Wistar rats [1]; rat, in vivo, po, 50 mg/kg",0.036 ± 0.003 mg/dL
same,TB (total bilirubin),"Wistar rats [1]; rat, in vivo, po, 50 mg/kg",0.08 ± 0.006 mg/dL
same,TP (total protein),"Wistar rats [1]; rat, in vivo, po, 50 mg/kg",6.38 ± 0.15 g/dL
same,ALB (albumin),"Wistar rats [1]; rat, in vivo, po, 300 mg/kg",3.63 ± 0.09 g/dL
same,ALB/GL Ratio,"Wistar rats [1]; rat, in vivo, po, 300 mg/kg",1.39 ± 0.15
same,DB (direct bilirubin),"Wistar rats [1]; rat, in vivo, po, 300 mg/kg",0.016 ± 0.004 mg/dL
same,GL (globulin),"Wistar rats [1]; rat, in vivo, po, 300 mg/kg",2.84 ± 0.16 g/dL
same,GLU (glucose),"Wistar rats [1]; rat, in vivo, po, 300 mg/kg",149.49 ± 5.00 mg/dL
same,IB (indirect bilirubin),"Wistar rats [1]; rat, in vivo, po, 300 mg/kg",0.030 ± 0.006 mg/dL
same,TB (total bilirubin),"Wistar rats [1]; rat, in vivo, po, 300 mg/kg",0.05 ± 0.003 mg/dL
same,TP (total protein),"Wistar rats [1]; rat, in vivo, po, 300 mg/kg",6.48 ± 0.065 g/dL
same,percentage viability / growth of cells,MDCK cells,caused significant differences in the rate of cell viability
same,alkaline phosphatase (ALP),Swiss-albino mice; 128 or 450 mg/kg orally for 14 days,increased
same,AST,"Swiss-albino mice; higher dose, orally for 14 days",declined
same,bilirubin,"Swiss-albino mice; only at 128 mg/kg, orally for 14 days",also increased
same,MCV,Wistar rats [3],56.45 ± 3.05 fL
same,PT,Wistar rats [3],16.20 ± 2.00 s
same,Platelets,Wistar rats [3],759.00±22.00 105/µL
same,RBCDW,Wistar rats [3],17.95±0.45%
same,APTT,"Wistar rats [3]; rat, in vivo, po, 50 mg/kg",14.55 ± 0.25 s
same,Hb,"Wistar rats [3]; rat, in vivo, po, 50 mg/kg",14.55 ± 0.65 g/dL
same,Hto,"Wistar rats [3]; rat, in vivo, po, 50 mg/kg",45.50±2.30%
same,Leukocytes,"Wistar rats [3]; rat, in vivo, po, 50 mg/kg",3.65±0.60 103/µL
same,MCH,"Wistar rats [3]; rat, in vivo, po, 50 mg/kg",18.05 ± 0.85 pg
same,APTT,"Wistar rats [3]; rat, in vivo, po, 300 mg/kg",15.75 ± 1.45 s
same,Erythrocytes,"Wistar rats [3]; rat, in vivo, po, 300 mg/kg",8.12±0.32 106/µL
same,Hb,"Wistar rats [3]; rat, in vivo, po, 300 mg/kg",14.67 ± 0.45 g/dL
same,Hto,"Wistar rats [3]; rat, in vivo, po, 300 mg/kg",45.73±1.15%
same,Leukocytes,"Wistar rats [3]; rat, in vivo, po, 300 mg/kg",4.21±0.38 103/µL
same,MCH,"Wistar rats [3]; rat, in vivo, po, 300 mg/kg",18.07 ± 0.20 pg
same,MCV,"Wistar rats [3]; rat, in vivo, po, 300 mg/kg",56.37 ± 0.90 fL
same,PT,"Wistar rats [3]; rat, in vivo, po, 300 mg/kg",16.00 ± 2.65 s
same,Platelets,"Wistar rats [3]; rat, in vivo, po, 300 mg/kg",665.00±125.33 105/µL
same,RBCDW,"Wistar rats [3]; rat, in vivo, po, 300 mg/kg",16.80±0.20%
same,IC50 at 48 h,[4],465 µM and 141 µg/mL
same,IC50 at 48 h,"[4]; abstract, first value of 'respectively'",219 ± 7.22 µM
same,percentage viability / growth of cells,VERO cells,produced a decrease in the percentage viability
